We go through 18 compounds from publication PMC6405326 (ACS chemical neuroscience, 2018).

The target of data set [1] is T1, mouse MOR (Mus musculus, UniProt P42866). Briefly: [35S]-GTPγS functional assay, MOR-CHO membranes. The conditions noted are these: for MOR [35S]-GTPγS assay % Emax of DAMGO: relative to 3 μM DAMGO; for Emax: read-out: MOR [35S]-GTPγS assay % Emax of DAMGO, relative to 3 μM DAMGO. On the technique in general: GTPγS is a poorly hydrolysed GTP analogue; its binding reports G protein activation.

The target of data set [2] is T1, mouse MOR. The experiment in a line: Competitive radioligand binding assay, MOR.
A further data set addresses mouse DOR (Mus musculus, UniProt P32300). The experiment in a line: Competitive radioligand binding assay, DOR.
The target of the next data set is mouse KOR (Mus musculus, UniProt P33534). Briefly: Competitive radioligand binding assay, KOR.
Data set [3] relates to male Swiss Webster mice. Briefly: Warm-water tail immersion assay, antinociceptive effect. The conditions noted are these: 10 mg/kg s.c., tested 20 min after injection, 56 °C water.
Data set [4] relates to male Swiss Webster mice. The experiment in a line: Warm-water tail immersion assay, antagonism of morphine's antinociceptive effect. Particulars: dose-response study, s.c.
The subject of data set [5] is KOR-DOR and KOR-MOR heterodimers. The conditions noted are these: HEK293 cells; cited from earlier work.
The conditions of data set [6]: cited from earlier work.

On to `O=C(CCCc1c[nH]c2ccccc12)N[C@@H]1CC[C@@]2(O)[C@H]3Cc4ccc(O)c5c4[C@@]2(CCN3CC2CC2)[C@H]1O5` [Compound 9, 17-Cyclopropylmethyl-3,14β-dihydroxy-4,5α-epoxy-6β-[4-(indol-3-yl)butanamido)morphinan], for which, on mouse MOR [1], a half-maximal effect (EC50) was put at 1.04 ± 0.17 nM and the “MOR [35S]-GTPγS assay % Emax of DAMGO” value is listed as 36.29 ±4.11%. Moreover, on mouse MOR [2], the Ki is 0.2 ± 0.03 nM. Further, the Ki on mouse DOR was 25.3 ± 4.34 nM.
In the case of `O=C(CCc1c[nH]c2ccccc12)N[C@H]1CC[C@@]2(O)[C@H]3Cc4ccc(O)c5c4[C@@]2(CCN3CC2CC2)[C@H]1O5` [Compound 17, 17-Cyclopropylmethyl-3,14β-dihydroxy-4,5α-epoxy-6α-[3-(indol-3-yl)propanamido)morphinan], it took 2.09 ± 0.19 nM to reach a half-maximal effect at mouse MOR [1] (EC50). In addition, at mouse MOR [1], the Emax was 41.5 ± 6.14%. Besides, the Ki on mouse KOR was found to be 1.36 ± 0.18 nM; at mouse MOR [2] it was 0.44 ± 0.04 nM; on mouse DOR, 25.1 ± 6.83 nM.
As to `O=C(N[C@@H]1CC[C@@]2(O)[C@H]3Cc4ccc(O)c5c4[C@@]2(CCN3CC2CC2)[C@H]1O5)c1c[nH]c2ccccc12` [Compound 2, 17-Cyclopropylmethyl-3,14β-dihydroxy-4,5α-epoxy-6β-(indole-3-carboxamido)morphinan], at mouse MOR [1], a half-maximal response (EC50) required 0.22 ± 0.07 nM, the Emax came out at 79.5 ± 7.41% and the “MOR [35S]-GTPγS assay % Emax of DAMGO” value was “high MOR efficacies”. The Ki at mouse MOR [2] was 0.19 ± 0.02 nM. For the same compound, the “Antinociceptive effect (% MPE)” value in the data set with male Swiss Webster mice [3] is “low % MPE values”. Moreover, the Ki at mouse DOR is 7.17 ± 1.23 nM.
As for `O=C(N[C@@H]1CC[C@@]2(O)[C@H]3Cc4ccc(O)c5c4[C@@]2(CCN3CC2CC2)[C@H]1O5)c1ccc2cc[nH]c2c1` [Compound 5, 17-Cyclopropylmethyl-3,14β-dihydroxy-4,5α-epoxy-6β-(indole-6-carboxamido)morphinan], on mouse MOR [1], the EC50 worked out at 0.19 ± 0.02 nM, the Emax was 71.8 ± 4.37% and the “MOR [35S]-GTPγS assay % Emax of DAMGO” value is listed as “high MOR efficacies”. On mouse KOR, the affinity, expressed as Ki, was 0.17 ± 0.01 nM. Moreover, the affinity at mouse MOR [2], expressed as Ki, was 0.25 ± 0.04 nM. In the data set with male Swiss Webster mice [3], the “Antinociceptive effect (% MPE)” value was “low % MPE values”. Also, the affinity at mouse DOR corresponds to a Ki of 6.23 ± 0.83 nM.
For the compound `O=C(N[C@H]1CC[C@@]2(O)[C@H]3Cc4ccc(O)c5c4[C@@]2(CCN3CC2CC2)[C@H]1O5)c1cccc2cc[nH]c12` [Compound 15, 17-Cyclopropylmethyl-3,14β-dihydroxy-4,5α-epoxy-6α-(indole-7-carboxamido)morphinan], the “AD50 (95% CL), opioid antagonist effect against morphine” value with male Swiss Webster mice [4] is listed as 2.07 (0.40−10.74) mg/kg.
Compound `O=C(N[C@H]1CC[C@@]2(O)[C@H]3Cc4ccc(O)c5c4[C@@]2(CCN3CC2CC2)[C@H]1O5)c1cc2ccccc2[nH]1` [Compound 10, 17-Cyclopropylmethyl-3,14β-dihydroxy-4,5α-epoxy-6α-(indole-2-carboxamido)morphinan] came in with an EC50 at mouse MOR [1] of 6.75 ± 3.2 nM. Besides, the Emax on mouse MOR [1] is 36.9 ± 2.4%. Moreover, the Ki was 0.93 ± 0.13 nM on mouse KOR, 0.36 ± 0.03 nM on mouse MOR [2] and 14.2 ± 2.78 nM on mouse DOR.
Turning to `O=C(N[C@@H]1CC[C@@]2(O)[C@H]3Cc4ccc(O)c5c4[C@@]2(CCN3CC2CC2)[C@H]1O5)c1cccc2[nH]ccc12` [Compound 3, 17-Cyclopropylmethyl-3,14β-dihydroxy-4,5α-epoxy-6β-(indole-4-carboxamido)morphinan], the response at mouse MOR [1] was half-maximal at 8.16 ± 4.72 nM (EC50). Moreover, the Ki turned out to be 0.24 ± 0.03 nM at mouse MOR [2] and 49.8 ± 12.7 nM at mouse DOR.
For the compound `O=C(N[C@H]1CC[C@@]2(O)[C@H]3Cc4ccc(O)c5c4[C@@]2(CCN3CC2CC2)[C@H]1O5)c1c[nH]c2ccccc12` [Compound 11, 17-Cyclopropylmethyl-3,14β-dihydroxy-4,5α-epoxy-6α-(indole-3-carboxamido)morphinan], at mouse MOR [1], the response was half-maximal at 1 ± 0.13 nM (EC50). Further, on mouse MOR [1], the Emax was 33.3 ± 3.51%. The Ki on mouse KOR came to 0.98 ± 0.13 nM; on mouse MOR [2], 0.29 ± 0.04 nM; at mouse DOR, 10.5 ± 2.89 nM.
For `O=C(N[C@H]1CC[C@@]2(O)[C@H]3Cc4ccc(O)c5c4[C@@]2(CCN3CC2CC2)[C@H]1O5)c1ccc2cc[nH]c2c1` [Compound 14, 17-Cyclopropylmethyl-3,14β-dihydroxy-4,5α-epoxy-6α-(indole-6-carboxamido)morphinan], in that order: 6.06 ± 1.25 nM, 26.6 ± 0.66%, 1.63 ± 0.28 nM, 0.43 ± 0.05 nM and 12.8 ± 3.36 nM.
On the same counts, the results for `O=C(CCc1c[nH]c2ccccc12)N[C@@H]1CC[C@@]2(O)[C@H]3Cc4ccc(O)c5c4[C@@]2(CCN3CC2CC2)[C@H]1O5` [Compound 8, 17-Cyclopropylmethyl-3,14β-dihydroxy-4,5α-epoxy-6β-[3-(indol-3-yl)propanamido)morphinan] are 1.73 ± 1.1 nM, 45.1 ± 5.18%, 0.39 ± 0.05 nM, 0.17 ± 0.01 nM and 77.1 ± 28.3 nM.
With `O=C(Cc1c[nH]c2ccccc12)N[C@@H]1CC[C@@]2(O)[C@H]3Cc4ccc(O)c5c4[C@@]2(CCN3CC2CC2)[C@H]1O5` [Compound 7, 17-Cyclopropylmethyl-3,14β-dihydroxy-4,5α-epoxy-6β-[2-(indol-3-yl)acetamido)morphinan], on mouse MOR [1], the half-maximal effective concentration (EC50) was found to be 1.44 ± 0.75 nM and the Emax was determined as 48.3 ± 4.45%. The compound also registered a Ki at mouse MOR [2] of 0.24 ± 0.03 nM. The compound also returned a Ki on mouse DOR of 37 ± 1.21 nM.
Regarding `O=C(N[C@@H]1CC[C@@]2(O)[C@H]3Cc4ccc(O)c5c4[C@@]2(CCN3CC2CC2)[C@H]1O5)c1cccc2cc[nH]c12` [Compound 6, 17-Cyclopropylmethyl-3,14β-dihydroxy-4,5α-epoxy-6β-(indole-7-carboxamido)morphinan], the “MOR [35S]-GTPγS assay % Emax of DAMGO” value at mouse MOR [1] is reported as 37.94 ±5.85%. In addition, the figures for the Ki on mouse KOR and on mouse DOR were 0.52 ± 0.09 nM and 30.4 ± 9.49 nM, respectively.
`O=C(N[C@H]1CC[C@@]2(O)[C@H]3Cc4ccc(O)c5c4[C@@]2(CCN3CC2CC2)[C@H]1O5)c1ccc2[nH]ccc2c1` [Compound 13, 17-Cyclopropylmethyl-3,14β-dihydroxy-4,5α-epoxy-6α-(indole-5-carboxamido)morphinan]: the EC50 on mouse MOR [1] is 1.55 ± 0.08 nM. Besides, on mouse MOR [1], the Emax was determined as 32.2 ± 1.26%. Besides, the figures for the Ki at mouse KOR, on mouse MOR [2] and at mouse DOR were 3.45 ± 0.99 nM, 0.76 ± 0.11 nM and 26.7 ± 7.72 nM, respectively.
On the same counts, the results for `O=C(CCCc1c[nH]c2ccccc12)N[C@H]1CC[C@@]2(O)[C@H]3Cc4ccc(O)c5c4[C@@]2(CCN3CC2CC2)[C@H]1O5` [Compound 18, 17-Cyclopropylmethyl-3,14β-dihydroxy-4,5α-epoxy-6α-[4-(indol-3-yl)butanamido)morphinan] are 1.89 ± 1.04 nM, 54.9 ± 6.35%, 0.15 ± 0.03 nM, 0.29 ± 0.04 nM and 6.73 ± 0.4 nM.
On the same counts, the results for `O=C(Cc1c[nH]c2ccccc12)N[C@H]1CC[C@@]2(O)[C@H]3Cc4ccc(O)c5c4[C@@]2(CCN3CC2CC2)[C@H]1O5` [Compound 16, 17-Cyclopropylmethyl-3,14β-dihydroxy-4,5α-epoxy-6α-[2-(indol-3-yl)acetamido)morphinan] are 4.75 ± 0.31 nM, 34.1 ± 0.97%, 3.14 ± 0.45 nM, 0.84 ± 0.12 nM and 9.17 ± 2.67 nM.
For `O=C(N[C@@H]1CC[C@@]2(O)[C@H]3Cc4ccc(O)c5c4[C@@]2(CCN3CC2CC2)[C@H]1O5)c1ccc2[nH]ccc2c1` [Compound 4, 17-Cyclopropylmethyl-3,14β-dihydroxy-4,5α-epoxy-6β-(indole-5-carboxamido)morphinan], the midpoint of the response on mouse MOR [1], the EC50, lay at 2.98 ± 1.25 nM. At mouse MOR [1], the Emax was 22.3 ± 3.5%. Besides, the inhibition constant Ki is 0.51 ± 0.04 nM at mouse KOR, 0.26 ± 0.04 nM on mouse MOR [2] and 17.7 ± 4.78 nM on mouse DOR.
For `O=C(N[C@@H]1CC[C@@]2(O)[C@H]3Cc4ccc(O)c5c4[C@@]2(CCN3CC2CC2)[C@H]1O5)c1cc2ccccc2[nH]1` [Compound 1, 17-Cyclopropylmethyl-3,14β-dihydroxy-4,5α-epoxy-6β-(indole-2-carboxamido)morphinan], in data set [5], the “Activation of KOR-DOR and KOR-MOR heterodimers” value was “activated”. On mouse MOR [1], a half-maximal effect (EC50) was put at 0.21 ± 0.01 nM, the Emax came to 92.4 ± 2.81% and the “MOR [35S]-GTPγS assay % Emax of DAMGO” value was “full agonist”. Moreover, at mouse MOR [1] (mMOR-CHO membranes), the “MOR [35S]-GTPγS assay EC50” value was “subnanomolar potency”. In data set [6], the Antinociception entry was “potent antinociception”; the “Aversive effects in the conditioned place preference assay” value is “no aversive effects”; the Tolerance and dependence result is “devoid of tolerance and dependence”. The same compound yielded a Ki on mouse KOR of 0.18 nM. The compound further showed a Ki at mouse MOR [2] of 0.29 ± 0.04 nM. The “Antinociceptive effect (% MPE)” value in the data set with male Swiss Webster mice [3] (listed as INTA) is “potent antinociception”. Moreover, the Ki at mouse DOR worked out at 1.54 ± 0.47 nM.
Consider `O=C(N[C@H]1CC[C@@]2(O)[C@H]3Cc4ccc(O)c5c4[C@@]2(CCN3CC2CC2)[C@H]1O5)c1cccc2[nH]ccc12` [Compound 12, 17-Cyclopropylmethyl-3,14β-dihydroxy-4,5α-epoxy-6α-(indole-4-carboxamido)morphinan], for which, at mouse MOR [1], the EC50 is 4.99 ± 2.19 nM and the “MOR [35S]-GTPγS assay % Emax of DAMGO” value is listed as 28.90 ±0.95%. This compound also had a Ki at mouse MOR [2] of 0.26 ± 0.04 nM. On mouse DOR, the affinity, expressed as Ki, was 9.26 ± 2.83 nM.

In general, EC50 refers to the concentration giving half of the maximal effect. Usually Ki stands for the dissociation constant of the complex between target and ligand, obtained from inhibition or displacement. Low readings indicate tighter binding, high ones weaker binding. As usually defined, the Emax is the size of the effect at its maximum, as opposed to the concentration needed.
